Results on one compound are retold here after patent US9249106B2, “Substituted hydrazide compounds and use thereof” (Shenyang J & Health Pharmaceutical Co., Ltd., priority 2009, dated 2016).

In brackets after ≈: the same amount, converted by molar mass.

Assay [1] has as its target T1, Procaspase-3 (Homo sapiens, UniProt P42574).
T1 sequence (P42574 1-277): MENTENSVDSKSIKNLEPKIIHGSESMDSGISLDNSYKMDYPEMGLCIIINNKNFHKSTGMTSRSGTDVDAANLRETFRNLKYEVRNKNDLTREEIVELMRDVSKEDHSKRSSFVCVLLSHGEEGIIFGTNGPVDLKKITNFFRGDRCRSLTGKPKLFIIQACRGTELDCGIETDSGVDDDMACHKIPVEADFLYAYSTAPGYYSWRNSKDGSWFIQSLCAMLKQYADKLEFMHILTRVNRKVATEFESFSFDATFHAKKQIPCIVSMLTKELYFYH
Particulars: both in vitro and in vivo; cited from earlier work.

Assay [2] has as its system SK-N-SH (human neuroblastoma cell). Put plainly: Antitumor activity assay in vitro (MTT). The class given is cell-based. The note with it: Homo sapiens, SK-N-SH cells, 72 hours, Bliss method. As for the experimental part:
(§1) (1) Five cell strains, SK-N-SH (human neuroblastoma cell), NCI-H226 (human lung cancer cell), Bel7402 (human liver cancer cell), A549 (human non-small cell lung cancer), and MCF7 (human breast cancer cell), were thawed and stably passaged for two or three times, respectively, and then digested with trypsin solution (0.25%) so as to be removed from the bottom of culture flasks. The digested cell solution was poured into a centrifuge tube, to which culture media was added to stop the digestion. The centrifuge tube was centrifuged at 1300 r/min for 3 min, the supernatant was removed gently and then 5 mL culture media was added. The cells were pipetted and mixed homogeneously. 10 μL cell suspension was taken into a cell counting plate for counting, wherein the cell concentration was adjusted to 10^4 cells/well. Each well of the 96-well plates, except for A1 well as blank control, contained 100 μL cell suspension. The 96-well plates were placed in an incubator and cultivated for 24 hours.
(§2) (2) 50 μL dimethyl sulfoxide was used to dissolve the test samples, and then a suitable amount of culture media was added so as to reach a final concentration of 2 mg/mL. Then the samples were diluted to 100, 20, 4, 0.8, 0.16 μg/mL in a 24-well plate, respectively. […] The 96-well plates were placed in an incubator and cultivated for 72 hours.
(§3) (3) The culture media containing the compounds in the 96-well plates was discarded, and the cells were washed with phosphate buffered solution (PBS) twice. Each well was added with 100 μL MTT (tetrazole) (0.5 mg/mL), and then placed in an incubator to incubate for 4 hours, after which MTT solution was discarded and 100 μL dimethyl sulfoxide was added thereto. The reaction product of survival cells with MTT, i.e. formazan, was dissolved completely by oscillation on a magnetic oscillator, then placed into a microplate reader to measure the results, and the IC50 values of compounds could be deduced by Bliss method. The control, N′-[(2-hydroxy-3-allyl)phenylmethylene]-2-(4-benzylpiperazin-1-yl)acethydrazide(PAC-1), was produced according to the method of patent WO2008/134474 A2.

Assay [3] deals with Bel7402 (human liver cancer cell). Put plainly: Antitumor activity assay in vitro (MTT). The class given is cell-based. Particulars: Homo sapiens, Bel-7402, Bel7402 cells, 72 hours, Bliss method. As for the experimental part: as §1, §2, §3
In assay [4] the test system is NCI-H226 (human lung cancer cell). In words: Antitumor activity assay in vitro (MTT). Type of assay: cell-based. The note with it: Homo sapiens, NCI-H226 cells, 72 hours, Bliss method, read-out: IC50 NCI-226. The method, then: as §1, §2, §3
The subject of assay [5] is MCF7 (human breast cancer cell). In words: Antitumor activity assay in vitro (MTT). Particulars: Homo sapiens, MCF7 cells, 72 hours, Bliss method. The class given is cell-based. As for the experimental part: as §1, §2, §3
The subject of assay [6] is A549 (human non-small cell lung cancer). In words: Antitumor activity assay in vitro (MTT). The class given is cell-based. The note with it: Homo sapiens, A549 cells, 72 hours, Bliss method. The method, then:
as §1, §2, §3

Assay [7] deals with cancer cells. The note with it: after treatment with PAC-1; cited from earlier work.

As usually defined, the IC50 is the concentration needed to halve the response being measured. Regarding `C=CCc1cccc(/C=N/NC(=O)CN2CCN(Cc3ccccc3)CC2)c1O` [PAC-1, N′-[(2-hydroxy-3-allyl)phenylmethylene]-2-(4-benzylpiperazin-1-yl)acethydrazide, reference compound], the “activation of Procaspase-3” value in assay [1] is reported as “activate Procaspase-3 significantly”. The IC50 in assay [2] was determined as 4.3 µg/mL (≈ 11 µM); in assay [3] it was 3.8 µg/mL (≈ 9.68 µM); in assay [4] it was 1.7 µg/mL (≈ 4.33 µM); in assay [5], 2.6 µg/mL (≈ 6.62 µM); in assay [6] it was 1.9 µg/mL (≈ 4.84 µM). The “time to induction of apoptosis of cancer cells after treatment” value in assay [7] was at most 23 h.
